The nature of series [1]: Cytotoxicity on BV2 cells, CCK8 method. The series is classed as cell-based. The settings on record: mouse, BV2 microglial cells, CCK8, 24 h treatment, 5-200 μM, read-out: Cytotoxic activities IC50. Here is the method:
The cytotoxicity assay was performed with a modified CCK8 method. First, BV2 microglial cells were cultured with 96-well microplates (10^4 cells/well in […] medium) for 24 h. Then, the cells were treated with different concentrations (5, 10, 30, 50, 100, 200 μM) of compounds. After the cells were incubated for 24 h, added 10 μL CCK8 solution to each well and incubated for 2 h in a 5% CO2 humidifier at 37 ℃. The absorbance was recorded at 450 nm with a microplate reader (BioTek Company, Winooski, VT, USA), repeating three times, and its IC50 value was calculated.
On the technique in general: Tetrazolium assays rely on reduction of a dye to a coloured formazan, in cell work by metabolically active cells.

Series [2] relates to NO production in LPS-stimulated BV2 cells. Description: Inhibition of NO production in LPS-stimulated BV2 cells (Griess reaction). The settings on record: read-out: Inhibitory effects on NO in LPS-induced BV-2, IC50. The series is classed as cell-based. Here is the method:
BV2 microglial cells were cultured in DMEM containing 10% fetal bovine serum, 100 IU/mL penicillin, and 100 μg/mL streptomycin at 37 ℃ with 5% CO2. Then, the cells were placed in 96-well microplates and treated with different compounds at 1–8 concentrations (5, 10, 30, 50, 100, 200 μM) for 1 h. Next, the cells were treated with 1 μg/mL LPS for 24 h to detect the NO (nitric oxide) levels in culture supernatants. After the Griess reaction (incubated at 37 ℃ with 5% CO2 for 0.5 h), the absorbance of cells was measured with a microplate reader (BioTek Company, Winooski, VT, USA) at […], repeated three times, and its IC50 value was calculated.
(In general: Nitrite, measured by Griess reagent, commonly stands in for NO production.)

Setting [3] is: Mus musculus, BV-2, compound 1 h then 1 μg/mL LPS 24 h.

Data on 9 compounds can be found in article PMC9503535, “Inositol Derivatives with Anti-Inflammatory Activity from Leaves of Solanum capsicoides Allioni” (Molecules, 2022).

Each structure is given as a SMILES string. Where two headings read alike, the source gives them in different places. Where only a bound is given, the exact number is not on record here.

For `CCC(C)C(=O)O[C@@H]1[C@@H](O)[C@H](O)[C@H](OC(=O)C(C)CC)[C@H](OC(=O)C(C)CC)[C@H]1O` (relative stereo) [Compound 5, myoinositol-2,3,6-(2-methylbutyrate)], the IC50 at 24 h in series [1] was above 100 µM. Besides, in series [2] (setting [3]), the IC50 was 11.2 ± 0.14 µM.

For `CCC(C)C(=O)O[C@@H]1[C@H](OC(=O)C(C)CC)[C@@H](O)[C@H](O)[C@@H](O)[C@@H]1OC(C)=O` (relative stereo) [Compound 6, myoinositol-2,3-(2-methylbutyrate)-4-acetate], in series [1], the IC50 at 24 h is above 100 µM. Further, the IC50 in series [2] (setting [3]) stood at 23.3 ± 0.74 µM.

On to `CNC(=N)NCCC[C@H](N)C(=O)O` [NMMA, reference compound], for which, in series [2] (compound 1 h then 1 μg/mL LPS 24 h), the IC50 is 1.67 ± 0.24 µM.

Consider `CCC(C)C(=O)O[C@@H]1[C@H](OC(=O)C(C)C)[C@@H](OC(=O)C(C)C)[C@H](O)[C@@H](O)[C@@H]1OC(C)=O` (relative stereo) [Compound 2, myoinositol-1,2-isobutyryloxy-3-(2-methylbutyrate)-4-acetate], for which the half-maximal inhibitory concentration (IC50) at 24 h in series [1] is above 100 µM. For the same compound, the IC50 in series [2] (setting [3]) was found to be 31.7 ± 2.71 µM.

For the compound `CCC(C)C(=O)O[C@@H]1[C@H](O)[C@@H](O)[C@H](O)[C@@H](OC(=O)C(C)CC)[C@@H]1OC(C)=O` (relative stereo) [Compound 7, myoinositol-1,3-(2-methylbutyrate)-2-acetate], in series [1], the IC50 at 24 h was above 100 µM. Also, the IC50 in series [2] (setting [3]) is 14.5 ± 1.22 µM.

Take `CCC(C)C(=O)O[C@H]1[C@@H](OC(=O)C(C)CC)[C@H](OC(C)=O)[C@@H](O)[C@H](OC(=O)C(C)CC)[C@H]1OC(C)=O` (relative stereo) [Compound 3, myoinositol-1,4-acetate-2,3,5-(2-methylbutyrate)]: in series [1], the IC50 at 24 h is above 100 µM. Moreover, the IC50 in series [2] (setting [3]) was above 100 µM.

With `CCC(C)C(=O)O[C@@H]1[C@@H](OC(=O)C(C)CC)[C@H](O)[C@@H](O)[C@H](O)[C@@H]1OC(=O)C(C)CC` (relative stereo) [Compound 8, myoinositol-2,3,6-(2-methylbutyrate)], the IC50 at 24 h in series [1] was above 100 µM. Besides, the IC50 in series [2] (setting [3]) was 31 ± 0.92 µM.

Regarding `CCC(C)C(=O)O[C@H]1[C@@H](OC(=O)C(C)CC)[C@H](OC(=O)C(C)CC)[C@@H](O)[C@H](OC(=O)C(C)C)[C@H]1OC(C)=O` (relative stereo) [Compound 4, myoinositol-1,2,3-(2-methylbutyrate)-4-acetate-5-isobutyryloxy], the IC50 at 24 h in series [1] was above 100 µM. In addition, the IC50 in series [2] (setting [3]) was above 100 µM.

`CCC(C)C(=O)O[C@@H]1[C@H](OC(C)=O)[C@@H](OC(=O)C(C)CC)[C@H](O)[C@@H](O)[C@@H]1OC(=O)C(C)C` (relative stereo) [Compound 1, myoinositol-1,3-(2-methylbutyrate)-2-acetate-4-isobutyryloxy]: the IC50 at 24 h in series [1] is above 100 µM. In series [2] (setting [3]), the IC50 is 24.3 ± 1.82 µM.

For orientation: IC50 means the concentration that gives 50% inhibition.
